Assay results as given in ChEMBL document CHEMBL4507264, “Data for DCP probe BAY-7598” (2021).
Calls of active or inactive are those of the source. The calls are words filed in the database; no cut-off is given here.

How the values were obtained:
[1] = molecular target: Tyrosine-protein kinase receptor UFO (Homo sapiens) (UniProt P30530); settings: Compound concentration 1000.0 nM
[2] = molecular target: Inhibitor of nuclear factor kappa-B kinase subunit beta (Homo sapiens) (UniProt O14920); settings: Compound concentration 1000.0 nM
[3] = system: Epidermal growth factor receptor (Homo sapiens), P00533 [UNDEFINED MUTATION]; settings: Compound concentration 1000.0 nM
[4] = molecular target: Serine/threonine-protein kinase WNK3 (Homo sapiens) (UniProt Q9BYP7); settings: Compound concentration 1000.0 nM
[5] = molecular target: Calcium/calmodulin-dependent protein kinase type 1B (Homo sapiens) (UniProt Q6P2M8); settings: Compound concentration 1000.0 nM
[6] = molecular target: Cyclin-dependent kinase 4 (Homo sapiens) (UniProt P11802); settings: Compound concentration 1000.0 nM
[7] = molecular target: Serine/threonine-protein kinase D3 (Homo sapiens) (UniProt O94806); settings: Compound concentration 1000.0 nM
[8] = molecular target: MAP kinase-activated protein kinase 2 (Homo sapiens) (UniProt P49137); settings: Compound concentration 1000.0 nM
[9] = molecular target: cAMP-dependent protein kinase catalytic subunit PRKX (Homo sapiens) (UniProt P51817); settings: Compound concentration 1000.0 nM
[10] = molecular target: Mitogen-activated protein kinase kinase kinase 11 (Homo sapiens) (UniProt Q16584); settings: Compound concentration 1000.0 nM
[11] = molecular target: Casein kinase I isoform gamma-3 (Homo sapiens) (UniProt Q9Y6M4); settings: Compound concentration 1000.0 nM
[12] = molecular target: Casein kinase II subunit alpha (Homo sapiens) (UniProt P68400); settings: Compound concentration 1000.0 nM
[13] = molecular target: Ribosomal protein S6 kinase alpha-5 (Homo sapiens) (UniProt O75582); settings: Compound concentration 1000.0 nM
[14] = molecular target: Transient receptor potential cation channel subfamily M member 6 (Homo sapiens) (UniProt Q9BX84); settings: Compound concentration 1000.0 nM
[15] = molecular target: Homeodomain-interacting protein kinase 3 (Homo sapiens) (UniProt Q9H422); settings: Compound concentration 1000.0 nM
[16] = molecular target: Macrophage metalloelastase (Homo sapiens, UniProt P39900); test: Biochemical assay (MMP12)
[17] = molecular target: Protein-tyrosine kinase 6 (Homo sapiens) (UniProt Q13882); settings: Compound concentration 1000.0 nM
[18] = molecular target: Calcium/calmodulin-dependent protein kinase type II subunit delta (Homo sapiens) (UniProt Q13557); settings: Compound concentration 1000.0 nM
[19] = molecular target: Serine/threonine-protein kinase Nek9 (Homo sapiens) (UniProt Q8TD19); settings: Compound concentration 1000.0 nM
[20] = molecular target: Fibroblast growth factor receptor 2 (Homo sapiens) (UniProt P21802); settings: Compound concentration 1000.0 nM
[21] = molecular target: Dual specificity testis-specific protein kinase 1 (Homo sapiens) (UniProt Q15569); settings: Compound concentration 1000.0 nM
[22] = molecular target: Epidermal growth factor receptor (Homo sapiens) (UniProt P00533); settings: Compound concentration 1000.0 nM
[23] = molecular target: Serine/threonine-protein kinase PknB (Mycobacterium tuberculosis) (UniProt P9WI81); settings: Compound concentration 1000.0 nM
[24] = molecular target: Vascular endothelial growth factor receptor 1 (Homo sapiens) (UniProt P17948); settings: Compound concentration 1000.0 nM
[25] = molecular target: Histamine H1 receptor (Homo sapiens) (UniProt P35367); settings: Compound concentration 10.0 uM
[26] = molecular target: Bone morphogenetic protein receptor type-1A (Homo sapiens) (UniProt P36894); settings: Compound concentration 1000.0 nM
[27] = molecular target: Tyrosine-protein kinase JAK1 (Homo sapiens) (UniProt P23458); settings: Compound concentration 1000.0 nM
[28] = molecular target: Mitogen-activated protein kinase kinase kinase kinase 3 (Homo sapiens) (UniProt Q8IVH8); settings: Compound concentration 1000.0 nM
[29] = molecular target: Cyclin-dependent kinase 11A (Homo sapiens) (UniProt Q9UQ88); settings: Compound concentration 1000.0 nM
[30] = molecular target: Serine/threonine-protein kinase 32C (Homo sapiens) (UniProt Q86UX6); settings: Compound concentration 1000.0 nM
[31] = molecular target: LIM domain kinase 1 (Homo sapiens) (UniProt P53667); settings: Compound concentration 1000.0 nM
[32] = molecular target: Dual specificity protein kinase CLK1 (Homo sapiens) (UniProt P49759); settings: Compound concentration 1000.0 nM
[33] = molecular target: Kappa-type opioid receptor (Homo sapiens) (UniProt P41145); settings: Compound concentration 10.0 uM
[34] = system: Epidermal growth factor receptor (Homo sapiens), P00533 [L858R]; settings: Compound concentration 1000.0 nM
[35] = molecular target: Muscle, skeletal receptor tyrosine-protein kinase (Homo sapiens) (UniProt O15146); settings: Compound concentration 1000.0 nM
[36] = molecular target: Serine/threonine-protein kinase 10 (Homo sapiens) (UniProt O94804); settings: Compound concentration 1000.0 nM
[37] = molecular target: Serine/threonine-protein kinase N2 (Homo sapiens) (UniProt Q16513); settings: Compound concentration 1000.0 nM
[38] = molecular target: Ephrin type-B receptor 2 (Homo sapiens) (UniProt P29323); settings: Compound concentration 1000.0 nM
[39] = molecular target: Serine/threonine-protein kinase TAO2 (Homo sapiens) (UniProt Q9UL54); settings: Compound concentration 1000.0 nM
[40] = molecular target: Serine/threonine-protein kinase 36 (Homo sapiens) (UniProt Q9NRP7); settings: Compound concentration 1000.0 nM
[41] = molecular target: Dual specificity mitogen-activated protein kinase kinase 2 (Homo sapiens) (UniProt P36507); settings: Compound concentration 1000.0 nM
[42] = molecular target: 5-hydroxytryptamine receptor 1D (Homo sapiens) (UniProt P28221); settings: Compound concentration 10.0 uM
[43] = molecular target: Hormonally up-regulated neu tumor-associated kinase (Homo sapiens) (UniProt P57058); settings: Compound concentration 1000.0 nM
[44] = molecular target: Mitogen-activated protein kinase kinase kinase kinase 5 (Homo sapiens) (UniProt Q9Y4K4); settings: Compound concentration 1000.0 nM
[45] = system: Mast/stem cell growth factor receptor Kit (Homo sapiens), P10721 [V559D,V654A]; settings: Compound concentration 1000.0 nM

Chain of Serine/threonine-protein kinase D3 (Homo sapiens) (O94806 whole entry): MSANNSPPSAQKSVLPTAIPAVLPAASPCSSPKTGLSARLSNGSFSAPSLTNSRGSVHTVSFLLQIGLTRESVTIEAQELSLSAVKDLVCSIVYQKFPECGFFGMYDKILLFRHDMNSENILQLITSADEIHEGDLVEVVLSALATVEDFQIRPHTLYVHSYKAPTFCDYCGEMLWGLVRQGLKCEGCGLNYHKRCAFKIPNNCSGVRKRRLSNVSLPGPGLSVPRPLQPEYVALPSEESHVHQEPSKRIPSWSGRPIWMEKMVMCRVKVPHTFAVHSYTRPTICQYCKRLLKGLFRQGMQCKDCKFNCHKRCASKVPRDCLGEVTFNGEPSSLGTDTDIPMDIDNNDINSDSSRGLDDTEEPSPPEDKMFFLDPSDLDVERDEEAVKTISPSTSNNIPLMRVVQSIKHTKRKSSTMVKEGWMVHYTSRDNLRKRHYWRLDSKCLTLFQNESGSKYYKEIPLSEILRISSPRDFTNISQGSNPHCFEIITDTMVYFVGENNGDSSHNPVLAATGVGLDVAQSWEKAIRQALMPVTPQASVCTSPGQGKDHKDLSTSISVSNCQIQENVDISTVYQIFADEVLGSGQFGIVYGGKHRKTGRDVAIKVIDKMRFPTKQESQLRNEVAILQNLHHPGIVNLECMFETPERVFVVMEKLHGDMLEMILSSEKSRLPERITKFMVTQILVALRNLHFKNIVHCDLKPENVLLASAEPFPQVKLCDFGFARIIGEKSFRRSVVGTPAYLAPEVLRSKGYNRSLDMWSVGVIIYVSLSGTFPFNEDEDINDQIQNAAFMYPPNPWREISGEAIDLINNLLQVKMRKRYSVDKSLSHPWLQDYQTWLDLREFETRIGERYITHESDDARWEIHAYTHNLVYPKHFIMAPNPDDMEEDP
Chain of Tyrosine-protein kinase JAK1 (Homo sapiens) (P23458 whole entry): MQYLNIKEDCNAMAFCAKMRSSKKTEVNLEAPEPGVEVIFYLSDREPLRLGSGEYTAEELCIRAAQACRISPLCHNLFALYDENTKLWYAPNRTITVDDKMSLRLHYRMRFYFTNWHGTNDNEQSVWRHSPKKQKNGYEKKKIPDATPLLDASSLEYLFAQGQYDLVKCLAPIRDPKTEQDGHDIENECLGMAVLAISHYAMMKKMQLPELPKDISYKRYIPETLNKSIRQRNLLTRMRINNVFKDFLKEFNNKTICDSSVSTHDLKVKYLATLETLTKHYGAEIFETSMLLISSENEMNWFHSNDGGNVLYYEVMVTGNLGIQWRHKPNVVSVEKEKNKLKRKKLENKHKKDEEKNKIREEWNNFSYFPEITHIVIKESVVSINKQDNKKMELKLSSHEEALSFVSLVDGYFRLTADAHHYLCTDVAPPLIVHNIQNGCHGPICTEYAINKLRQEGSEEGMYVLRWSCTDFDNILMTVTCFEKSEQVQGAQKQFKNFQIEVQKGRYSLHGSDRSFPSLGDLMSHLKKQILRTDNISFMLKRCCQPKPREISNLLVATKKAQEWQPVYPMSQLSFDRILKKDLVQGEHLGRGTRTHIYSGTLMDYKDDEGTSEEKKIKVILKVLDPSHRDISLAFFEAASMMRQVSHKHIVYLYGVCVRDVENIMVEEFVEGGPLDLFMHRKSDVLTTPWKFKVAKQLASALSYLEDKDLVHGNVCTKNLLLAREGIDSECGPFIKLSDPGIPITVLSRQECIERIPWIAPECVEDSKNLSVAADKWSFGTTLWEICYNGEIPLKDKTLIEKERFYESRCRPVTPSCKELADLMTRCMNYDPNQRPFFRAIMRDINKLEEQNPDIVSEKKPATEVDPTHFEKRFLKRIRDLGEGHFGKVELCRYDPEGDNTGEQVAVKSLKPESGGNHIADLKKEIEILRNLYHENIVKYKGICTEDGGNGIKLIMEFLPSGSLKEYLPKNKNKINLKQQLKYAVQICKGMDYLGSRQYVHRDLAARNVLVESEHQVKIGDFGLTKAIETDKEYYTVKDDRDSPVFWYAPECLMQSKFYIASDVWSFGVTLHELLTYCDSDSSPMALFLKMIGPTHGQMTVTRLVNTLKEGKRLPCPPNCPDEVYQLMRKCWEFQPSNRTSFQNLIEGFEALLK
Chain of Transient receptor potential cation channel subfamily M member 6 (Homo sapiens) (Q9BX84 whole entry): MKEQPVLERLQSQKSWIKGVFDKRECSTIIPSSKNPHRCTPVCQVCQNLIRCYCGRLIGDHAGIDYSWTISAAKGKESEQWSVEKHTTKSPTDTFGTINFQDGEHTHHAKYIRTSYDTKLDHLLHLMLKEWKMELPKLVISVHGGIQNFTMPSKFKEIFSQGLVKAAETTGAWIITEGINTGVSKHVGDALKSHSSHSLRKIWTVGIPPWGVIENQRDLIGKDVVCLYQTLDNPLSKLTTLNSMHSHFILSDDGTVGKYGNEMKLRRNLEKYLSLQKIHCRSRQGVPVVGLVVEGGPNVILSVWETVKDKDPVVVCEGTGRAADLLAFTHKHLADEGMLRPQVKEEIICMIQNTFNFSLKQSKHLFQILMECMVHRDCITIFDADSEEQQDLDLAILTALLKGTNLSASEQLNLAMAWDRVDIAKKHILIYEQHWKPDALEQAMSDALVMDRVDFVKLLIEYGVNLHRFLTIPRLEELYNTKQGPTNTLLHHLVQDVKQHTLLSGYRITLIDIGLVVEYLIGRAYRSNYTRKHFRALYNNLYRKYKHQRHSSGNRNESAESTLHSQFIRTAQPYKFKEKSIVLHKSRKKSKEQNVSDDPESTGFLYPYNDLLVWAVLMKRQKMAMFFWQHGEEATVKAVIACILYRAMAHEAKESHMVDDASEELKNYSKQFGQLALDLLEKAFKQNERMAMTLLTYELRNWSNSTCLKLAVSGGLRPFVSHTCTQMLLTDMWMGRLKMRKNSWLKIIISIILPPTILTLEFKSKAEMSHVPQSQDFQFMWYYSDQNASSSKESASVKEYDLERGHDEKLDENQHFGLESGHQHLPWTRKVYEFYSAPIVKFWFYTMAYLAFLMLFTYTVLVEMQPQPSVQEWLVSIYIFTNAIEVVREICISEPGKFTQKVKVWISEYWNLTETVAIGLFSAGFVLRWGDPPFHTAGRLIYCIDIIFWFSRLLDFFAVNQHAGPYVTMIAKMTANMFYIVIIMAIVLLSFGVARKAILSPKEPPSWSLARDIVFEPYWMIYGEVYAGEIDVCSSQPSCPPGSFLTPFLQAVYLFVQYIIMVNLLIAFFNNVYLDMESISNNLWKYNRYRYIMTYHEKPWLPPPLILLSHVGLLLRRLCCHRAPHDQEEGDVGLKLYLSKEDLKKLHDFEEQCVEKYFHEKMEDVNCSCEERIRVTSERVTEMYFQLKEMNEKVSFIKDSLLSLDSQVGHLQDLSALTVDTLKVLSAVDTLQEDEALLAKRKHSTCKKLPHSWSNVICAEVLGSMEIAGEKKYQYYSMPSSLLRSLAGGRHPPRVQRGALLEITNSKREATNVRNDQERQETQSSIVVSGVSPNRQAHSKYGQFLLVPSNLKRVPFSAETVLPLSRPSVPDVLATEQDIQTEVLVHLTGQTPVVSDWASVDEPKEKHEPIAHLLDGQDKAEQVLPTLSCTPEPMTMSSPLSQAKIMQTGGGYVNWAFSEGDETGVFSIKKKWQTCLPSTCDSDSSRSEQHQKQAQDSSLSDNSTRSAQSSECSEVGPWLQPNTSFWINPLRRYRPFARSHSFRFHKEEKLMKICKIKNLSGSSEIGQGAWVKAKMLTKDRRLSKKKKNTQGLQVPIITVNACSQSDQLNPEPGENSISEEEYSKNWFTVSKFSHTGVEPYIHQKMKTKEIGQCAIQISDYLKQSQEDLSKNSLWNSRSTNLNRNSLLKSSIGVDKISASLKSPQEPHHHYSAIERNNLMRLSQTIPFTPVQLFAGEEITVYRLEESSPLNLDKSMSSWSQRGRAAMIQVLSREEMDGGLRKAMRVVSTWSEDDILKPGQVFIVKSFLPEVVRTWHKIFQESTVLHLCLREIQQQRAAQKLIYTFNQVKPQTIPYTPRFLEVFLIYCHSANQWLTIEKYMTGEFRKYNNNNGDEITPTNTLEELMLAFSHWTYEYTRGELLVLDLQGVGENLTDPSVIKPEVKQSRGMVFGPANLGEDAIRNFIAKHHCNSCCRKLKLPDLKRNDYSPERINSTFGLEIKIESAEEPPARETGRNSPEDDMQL
Chain of LIM domain kinase 1 (Homo sapiens) (P53667 whole entry, looked up, the tested form may be a part): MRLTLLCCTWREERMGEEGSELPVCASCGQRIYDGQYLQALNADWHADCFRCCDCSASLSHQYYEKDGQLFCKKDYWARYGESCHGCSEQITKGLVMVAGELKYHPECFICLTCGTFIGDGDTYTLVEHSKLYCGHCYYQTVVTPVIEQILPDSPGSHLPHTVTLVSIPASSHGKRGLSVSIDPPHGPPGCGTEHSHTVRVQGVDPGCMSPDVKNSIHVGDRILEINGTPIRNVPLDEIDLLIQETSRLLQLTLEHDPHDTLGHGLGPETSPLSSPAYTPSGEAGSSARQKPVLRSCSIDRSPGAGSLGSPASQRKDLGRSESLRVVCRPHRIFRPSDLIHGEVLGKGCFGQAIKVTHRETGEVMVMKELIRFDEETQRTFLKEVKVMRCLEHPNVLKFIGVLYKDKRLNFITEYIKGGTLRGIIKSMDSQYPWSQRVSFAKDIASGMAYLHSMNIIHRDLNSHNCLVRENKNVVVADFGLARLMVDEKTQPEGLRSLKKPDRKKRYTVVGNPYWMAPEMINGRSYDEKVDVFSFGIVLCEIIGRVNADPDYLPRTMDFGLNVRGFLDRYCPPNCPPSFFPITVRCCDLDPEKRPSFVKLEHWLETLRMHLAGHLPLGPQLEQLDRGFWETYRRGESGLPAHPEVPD
Chain of Casein kinase II subunit alpha (Homo sapiens) (P68400 whole entry, looked up): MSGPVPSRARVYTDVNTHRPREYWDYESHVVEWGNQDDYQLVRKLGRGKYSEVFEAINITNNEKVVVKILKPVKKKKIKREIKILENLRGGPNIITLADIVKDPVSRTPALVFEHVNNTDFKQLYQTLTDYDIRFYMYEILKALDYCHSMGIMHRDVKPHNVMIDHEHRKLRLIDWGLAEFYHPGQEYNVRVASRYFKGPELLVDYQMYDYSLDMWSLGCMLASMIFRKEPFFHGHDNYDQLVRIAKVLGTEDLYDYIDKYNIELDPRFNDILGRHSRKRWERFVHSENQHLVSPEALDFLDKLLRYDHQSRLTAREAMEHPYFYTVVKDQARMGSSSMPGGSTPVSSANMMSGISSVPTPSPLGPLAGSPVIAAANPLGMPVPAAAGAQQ

O=C(O)[C@@H]1[C@@H](Cn2nnc3ccccc3c2=O)CC[C@H]1C(=O)c1ccc(OCCC2CCOCC2)cc1 [BAY-694]
residual activity [1]: 100% | residual activity [2]: 100% | residual activity [3]: 87% | residual activity [4]: 100% | residual activity [5]: 67% | residual activity [6]: 96% | residual activity [7]: 100% | residual activity [8]: 100% | residual activity [9]: 100% | residual activity [10]: 92% | residual activity [11]: 100% | residual activity [12]: 87% | residual activity [13]: 100% | residual activity [14]: 96% | residual activity [15]: 100% | IC50 [16]: 80 nM (not active) | residual activity [17]: 99% | residual activity [18]: 100% | residual activity [19]: 100% | residual activity [20]: 100% | residual activity [21]: 94% | residual activity [22]: 90% | residual activity [23]: 94% | residual activity [24]: 100% | inhibition [25]: 1.6% | residual activity [26]: 100% | residual activity [27]: 79% | residual activity [28]: 100% | residual activity [29]: 91% | residual activity [30]: 100% | residual activity [31]: 100% | residual activity [32]: 98% | inhibition [33]: 8.5% | residual activity [34]: 100% | residual activity [35]: 100% | residual activity [36]: 84% | residual activity [37]: 100% | residual activity [38]: 100% | residual activity [39]: 76% | residual activity [40]: 91% | residual activity [41]: 100% | inhibition [42]: 14% | residual activity [43]: 100% | residual activity [44]: 100% | residual activity [45]: 94%

O=C(O)[C@H]1[C@H](Cn2nnc3ccccc3c2=O)CC[C@@H]1C(=O)c1ccc(OCCC2CCOCC2)cc1 [BAY-7598]
residual activity [1]: 100% | residual activity [2]: 100% | residual activity [3]: 76% | residual activity [4]: 100% | residual activity [5]: 46% | residual activity [6]: 89% | residual activity [7]: 88% | residual activity [8]: 89% | residual activity [9]: 93% | residual activity [10]: 92% | residual activity [11]: 100% | residual activity [12]: 100% | residual activity [13]: 100% | residual activity [14]: 100% | residual activity [15]: 99% | IC50 [16]: 0.085 nM (active) | residual activity [17]: 100% | residual activity [18]: 86% | residual activity [19]: 91% | residual activity [20]: 100% | residual activity [21]: 100% | residual activity [22]: 88% | residual activity [23]: 77% | residual activity [24]: 96% | inhibition [25]: -8.85% | residual activity [26]: 61% | residual activity [27]: 88% | residual activity [28]: 100% | residual activity [29]: 92% | residual activity [30]: 89% | residual activity [31]: 100% | residual activity [32]: 98% | inhibition [33]: -3.04% | residual activity [34]: 95% | residual activity [35]: 95% | residual activity [36]: 100% | residual activity [37]: 76% | residual activity [38]: 100% | residual activity [39]: 100% | residual activity [40]: 100% | residual activity [41]: 100% | inhibition [42]: 4.82% | residual activity [43]: 71% | residual activity [44]: 92% | residual activity [45]: 100%
